Values quoted from earlier work as cited in publication PMC5189927 (Molecular Psychiatry, 2014).
Counter-ions that a name gives are not always drawn. One block for each compound: values may come before it.

Legend:
α-galactosidase A [1] = settings: healthy volunteers
α-galactosidase A [2] = settings: Fabry patients with amenable mutations, phase 3, 12 months of treatment
β-hex A = settings: phase 1/2, Tay–Sachs and Sandhoff patients
glucocerebrosidase [3] = settings: healthy volunteers
glucocerebrosidase [4] = system: glucocerebrosidase

Increase in wild-type α-galactosidase A levels (α-galactosidase A [1]): two- to threefold
SMILES: OC[C@H]1NC[C@H](O)[C@@H](O)[C@H]1O [migalastat, deoxygalactonojirimycin hydrochloride]
Levels of kidney interstitial capillary GL-3 (α-galactosidase A [2]): statistically significant reduction

SMILES: CCc1nc(N)nc(N)c1-c1ccc(Cl)cc1 [pyrimethamine, Pyrimethamine]
Side effects (β-hex A): severe side effects
β-hex A levels in patients (β-hex A): increased β-hex A levels for all eight patients

Increase in wild-type glucocerebrosidase levels (glucocerebrosidase [3]): two- to threefold
SMILES: OC[C@H]1CNC[C@@H](O)[C@@H]1O [isofagomine, isofagomine tartrate]
Glucocerebrosidase levels in peripheral blood mononuclear cells (glucocerebrosidase [4]; healthy volunteers (phase 1) and type I Gaucher patients (phase 2)): significantly increased
Gaucher patients with clinically meaningful end points (glucocerebrosidase [4]; phase 2, doses and dosing regimens assessed): 1 of 18
